Read-outs that look alike come from different tables or passages of the source.

The text below walks through data of PMC4979471 (Cell Death Discovery, 2015).

What all share (assay): Kinase selectivity, P33-radiolabeled assay
What all share (assay type): biochemical
What all share (settings): 10 μM ATP

Experiment [1] addresses T1, PKAcg (Homo sapiens, UniProt P22612).
T1 construct: purchased Reaction Biology Corp
The essentials: (§1)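 Reactions contained 10 μM ATP and 10 μM test compound, each run in duplicate. Kinase activity is expressed as a percentage of DMSO-treated controls.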

The target of experiment [2] is T2, GRK7 (Homo sapiens, UniProt Q8WTQ7).
T2 construct: purchased Reaction Biology Corp
T2 sequence (Q8WTQ7 1-553): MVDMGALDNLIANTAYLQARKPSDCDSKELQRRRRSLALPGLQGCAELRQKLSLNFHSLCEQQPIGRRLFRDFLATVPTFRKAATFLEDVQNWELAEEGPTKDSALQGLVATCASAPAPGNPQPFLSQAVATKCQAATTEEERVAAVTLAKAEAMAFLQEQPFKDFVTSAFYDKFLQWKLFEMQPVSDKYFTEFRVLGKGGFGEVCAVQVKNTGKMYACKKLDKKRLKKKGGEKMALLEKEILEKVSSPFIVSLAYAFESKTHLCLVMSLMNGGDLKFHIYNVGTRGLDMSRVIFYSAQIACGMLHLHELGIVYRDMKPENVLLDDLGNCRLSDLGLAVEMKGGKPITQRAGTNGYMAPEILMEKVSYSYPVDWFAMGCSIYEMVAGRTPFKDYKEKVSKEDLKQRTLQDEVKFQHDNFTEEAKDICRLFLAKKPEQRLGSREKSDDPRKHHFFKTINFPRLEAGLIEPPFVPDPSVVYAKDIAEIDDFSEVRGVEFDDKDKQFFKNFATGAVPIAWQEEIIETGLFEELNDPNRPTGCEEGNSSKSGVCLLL
The essentials: as §1

Experiment [3] addresses T3, DLK/MAP3K12 (Homo sapiens, UniProt Q12852).
T3 construct: purchased Reaction Biology Corp
T3 sequence (Q12852 1-859): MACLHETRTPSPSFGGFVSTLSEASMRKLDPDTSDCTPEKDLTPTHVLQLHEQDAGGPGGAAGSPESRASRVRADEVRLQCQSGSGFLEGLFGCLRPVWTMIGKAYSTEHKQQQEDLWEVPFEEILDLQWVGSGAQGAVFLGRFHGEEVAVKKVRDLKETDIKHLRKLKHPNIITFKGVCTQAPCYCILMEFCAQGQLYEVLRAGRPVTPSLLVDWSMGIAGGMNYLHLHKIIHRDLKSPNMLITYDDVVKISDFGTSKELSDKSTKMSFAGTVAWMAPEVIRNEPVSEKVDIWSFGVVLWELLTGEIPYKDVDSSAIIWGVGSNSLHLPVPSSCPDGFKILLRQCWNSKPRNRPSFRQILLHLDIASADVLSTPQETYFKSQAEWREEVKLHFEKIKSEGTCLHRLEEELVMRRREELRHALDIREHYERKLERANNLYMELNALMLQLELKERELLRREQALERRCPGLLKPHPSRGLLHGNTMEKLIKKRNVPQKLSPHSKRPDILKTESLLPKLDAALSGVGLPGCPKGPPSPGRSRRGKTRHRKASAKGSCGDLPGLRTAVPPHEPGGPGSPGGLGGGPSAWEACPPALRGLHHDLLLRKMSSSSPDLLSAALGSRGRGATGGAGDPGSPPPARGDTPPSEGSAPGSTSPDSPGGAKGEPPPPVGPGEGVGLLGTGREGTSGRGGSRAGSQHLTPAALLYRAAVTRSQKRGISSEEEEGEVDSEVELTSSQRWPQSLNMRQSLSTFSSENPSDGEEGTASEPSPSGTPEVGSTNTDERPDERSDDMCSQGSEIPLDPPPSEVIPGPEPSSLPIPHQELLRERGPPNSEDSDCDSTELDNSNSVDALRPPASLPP
The essentials: as §1

Experiment [4] addresses T4, Aurora C (Homo sapiens, UniProt Q9UQB9).
T4 construct: purchased Reaction Biology Corp
T4 sequence (Q9UQB9 1-309): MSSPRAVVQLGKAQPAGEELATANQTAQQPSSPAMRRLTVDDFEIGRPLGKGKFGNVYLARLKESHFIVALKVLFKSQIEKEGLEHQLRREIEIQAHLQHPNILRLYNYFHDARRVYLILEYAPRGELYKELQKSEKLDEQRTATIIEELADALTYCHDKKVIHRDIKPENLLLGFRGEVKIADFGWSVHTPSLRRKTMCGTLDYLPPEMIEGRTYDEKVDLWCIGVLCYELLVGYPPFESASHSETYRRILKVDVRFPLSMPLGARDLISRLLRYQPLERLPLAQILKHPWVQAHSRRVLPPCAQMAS
The essentials: as §1

For experiment [5], the target named is T5, PAK6 (Homo sapiens, UniProt Q9NQU5).
T5 construct: purchased Reaction Biology Corp
T5 sequence (Q9NQU5 whole entry): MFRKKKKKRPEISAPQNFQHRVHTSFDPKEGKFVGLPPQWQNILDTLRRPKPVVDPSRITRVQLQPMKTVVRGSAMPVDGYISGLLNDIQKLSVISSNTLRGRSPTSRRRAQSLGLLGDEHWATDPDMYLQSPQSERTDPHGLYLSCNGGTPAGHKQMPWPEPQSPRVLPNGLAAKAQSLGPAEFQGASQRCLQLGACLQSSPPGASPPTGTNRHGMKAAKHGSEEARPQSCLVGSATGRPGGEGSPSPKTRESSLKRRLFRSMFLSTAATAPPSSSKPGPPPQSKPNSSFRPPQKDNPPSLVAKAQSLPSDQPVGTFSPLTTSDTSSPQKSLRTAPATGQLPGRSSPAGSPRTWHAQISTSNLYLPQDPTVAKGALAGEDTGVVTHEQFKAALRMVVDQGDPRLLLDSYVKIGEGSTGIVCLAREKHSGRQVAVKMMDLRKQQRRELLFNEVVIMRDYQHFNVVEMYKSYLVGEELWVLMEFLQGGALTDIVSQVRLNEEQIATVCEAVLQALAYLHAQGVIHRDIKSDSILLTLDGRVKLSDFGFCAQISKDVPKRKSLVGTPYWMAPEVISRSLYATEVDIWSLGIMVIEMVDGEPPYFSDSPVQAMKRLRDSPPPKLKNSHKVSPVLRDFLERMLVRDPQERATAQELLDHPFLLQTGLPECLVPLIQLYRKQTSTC
The essentials:
as §1

The target in experiment [6] is T6, CK2a (Homo sapiens, UniProt P68400).
T6 construct: purchased Reaction Biology Corp
T6 sequence (P68400 whole entry): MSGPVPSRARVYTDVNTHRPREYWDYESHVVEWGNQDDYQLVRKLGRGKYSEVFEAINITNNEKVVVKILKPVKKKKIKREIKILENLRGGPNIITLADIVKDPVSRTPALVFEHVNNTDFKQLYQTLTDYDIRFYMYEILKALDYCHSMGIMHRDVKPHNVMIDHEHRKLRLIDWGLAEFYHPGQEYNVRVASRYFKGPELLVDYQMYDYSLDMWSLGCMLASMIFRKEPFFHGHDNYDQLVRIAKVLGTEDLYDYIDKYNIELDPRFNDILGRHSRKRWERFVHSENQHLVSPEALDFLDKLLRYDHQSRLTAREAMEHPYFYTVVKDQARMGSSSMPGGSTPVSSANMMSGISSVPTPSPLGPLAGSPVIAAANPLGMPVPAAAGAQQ
The essentials: as §1

Experiment [7] concerns the target T7, WNK3 (Homo sapiens, UniProt Q9BYP7).
T7 construct: purchased Reaction Biology Corp
The essentials: as §1

The target of experiment [8] is T8, PKAcb (Homo sapiens, UniProt P22694).
T8 construct: purchased Reaction Biology Corp
The essentials:
as §1

[9] abbreviates: read-out: % Enzyme Activity (relative to DMSO controls) AVG.
[10] abbreviates: read-out: % Enzyme Activity (relative to DMSO controls) Data 1.
[11] abbreviates: read-out: % Enzyme Activity (relative to DMSO controls) Data 2.

T7 sequence (Q9BYP7 whole entry): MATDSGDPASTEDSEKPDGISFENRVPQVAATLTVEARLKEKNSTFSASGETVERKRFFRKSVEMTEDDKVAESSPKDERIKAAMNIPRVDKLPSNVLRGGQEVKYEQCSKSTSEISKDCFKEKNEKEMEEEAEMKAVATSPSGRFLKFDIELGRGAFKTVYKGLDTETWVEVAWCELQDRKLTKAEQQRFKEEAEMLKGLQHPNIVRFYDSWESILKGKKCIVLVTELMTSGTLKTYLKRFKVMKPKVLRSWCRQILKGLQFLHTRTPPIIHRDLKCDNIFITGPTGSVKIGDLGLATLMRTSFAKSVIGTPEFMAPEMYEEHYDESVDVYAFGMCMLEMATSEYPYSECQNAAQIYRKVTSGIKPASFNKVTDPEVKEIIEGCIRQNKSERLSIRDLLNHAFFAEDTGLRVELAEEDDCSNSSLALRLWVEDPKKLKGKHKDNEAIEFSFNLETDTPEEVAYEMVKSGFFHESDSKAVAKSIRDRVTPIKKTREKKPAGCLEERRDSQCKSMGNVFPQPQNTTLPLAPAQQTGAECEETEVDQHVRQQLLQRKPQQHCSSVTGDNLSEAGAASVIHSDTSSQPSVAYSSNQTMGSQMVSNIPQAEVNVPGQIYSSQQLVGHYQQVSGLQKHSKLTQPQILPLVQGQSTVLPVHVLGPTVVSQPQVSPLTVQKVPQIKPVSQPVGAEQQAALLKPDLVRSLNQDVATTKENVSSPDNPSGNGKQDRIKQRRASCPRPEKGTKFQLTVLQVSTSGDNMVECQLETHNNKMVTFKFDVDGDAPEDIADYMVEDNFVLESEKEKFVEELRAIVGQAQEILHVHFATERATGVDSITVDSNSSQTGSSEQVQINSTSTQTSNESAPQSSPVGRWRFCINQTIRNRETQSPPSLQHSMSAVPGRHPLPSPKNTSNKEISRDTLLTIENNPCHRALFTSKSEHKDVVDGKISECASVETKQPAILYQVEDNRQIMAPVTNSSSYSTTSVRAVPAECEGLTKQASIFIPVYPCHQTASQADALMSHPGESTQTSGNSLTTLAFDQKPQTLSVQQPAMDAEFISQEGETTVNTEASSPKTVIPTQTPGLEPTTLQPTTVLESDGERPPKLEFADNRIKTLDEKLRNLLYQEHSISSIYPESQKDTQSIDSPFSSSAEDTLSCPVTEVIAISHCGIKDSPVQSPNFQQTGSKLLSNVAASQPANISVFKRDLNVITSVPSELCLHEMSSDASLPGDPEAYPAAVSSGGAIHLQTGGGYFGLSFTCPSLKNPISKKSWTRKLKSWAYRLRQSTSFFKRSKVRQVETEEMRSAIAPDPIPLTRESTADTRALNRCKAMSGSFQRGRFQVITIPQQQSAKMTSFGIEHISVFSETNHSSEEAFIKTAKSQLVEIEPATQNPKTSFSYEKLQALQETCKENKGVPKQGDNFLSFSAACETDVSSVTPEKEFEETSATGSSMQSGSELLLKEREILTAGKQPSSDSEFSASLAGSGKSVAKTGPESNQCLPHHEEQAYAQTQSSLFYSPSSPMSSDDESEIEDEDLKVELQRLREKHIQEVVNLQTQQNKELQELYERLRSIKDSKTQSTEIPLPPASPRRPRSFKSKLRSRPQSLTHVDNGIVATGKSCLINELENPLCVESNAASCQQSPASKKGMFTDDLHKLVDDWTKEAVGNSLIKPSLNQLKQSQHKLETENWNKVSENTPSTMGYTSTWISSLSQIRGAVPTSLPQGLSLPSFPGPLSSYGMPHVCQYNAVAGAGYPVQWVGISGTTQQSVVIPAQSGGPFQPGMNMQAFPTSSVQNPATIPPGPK
T1 sequence (P22612 whole entry): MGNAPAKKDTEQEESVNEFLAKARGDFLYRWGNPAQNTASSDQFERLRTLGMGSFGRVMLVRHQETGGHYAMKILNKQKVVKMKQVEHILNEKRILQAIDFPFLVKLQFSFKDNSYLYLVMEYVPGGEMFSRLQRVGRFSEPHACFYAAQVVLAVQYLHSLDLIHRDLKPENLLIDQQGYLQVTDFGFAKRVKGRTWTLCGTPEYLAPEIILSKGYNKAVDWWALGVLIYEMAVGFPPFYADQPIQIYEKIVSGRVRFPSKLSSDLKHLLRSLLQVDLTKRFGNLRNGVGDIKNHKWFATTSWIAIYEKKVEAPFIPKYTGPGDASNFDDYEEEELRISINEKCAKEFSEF

In the case of `CC(C)(C)C(=O)N1N=CC[C@H]1c1ccccc1` [GSK′963], the remaining activity at 10 µM in experiment [1] (setting [9]) stood at 122%; in experiment [1] (setting [10]), 123%; in experiment [1] (setting [11]) it was 122%; in experiment [2] (setting [9]) it was 90.3%; in experiment [2] (setting [10]), 88.3%; in experiment [2] (setting [11]), 92.4%. Moreover, the remaining activity at 10 µM in experiment [3] (setting [9]) came out at 104%; in experiment [3] (setting [10]) it was 106%; in experiment [3] (setting [11]) it was 102%; in experiment [4] (setting [9]), 96.9%; in experiment [4] (setting [10]) it was 98.4%; in experiment [4] (setting [11]), 95.5%. For the same compound, the remaining activity at 10 µM in experiment [5] (setting [9]) was determined as 97.1%; in experiment [5] (setting [10]), 99.6%; in experiment [5] (setting [11]) it was 94.7%; in experiment [6] (setting [9]), 99.4%; in experiment [6] (setting [10]) it was 105%; in experiment [6] (setting [11]), 93.8%. Moreover, the remaining activity at 10 µM in experiment [7] (setting [9]) came to 100%; in experiment [7] (setting [10]) it was 97.5%; in experiment [7] (setting [11]), 103%; in experiment [8] (setting [9]), 111%; in experiment [8] (setting [10]) it was 110%; in experiment [8] (setting [11]), 113%.
